# Test results published in patent publication US20120156180A1, “COMPOSITIONS AND METHODS FOR THE TREATMENT OF KRABBE AND OTHER NEURODEGENERATIVE DISEASES” (The Board of Trustees of the University of Illinois, priority 2009, published 2012).
# pKd: −log10 of the molar value. Entries after “also recorded” stand apart in the source; their conditions may differ. Square brackets hold non-standard residues; d marks the D form. Ends that are not written are not given here. pS = N[C@@H](COP(=O)(O)O)C(=O)O
# Columns and labels:
# fast axonal transport = test: Vesicle motility assays in isolated axoplasm; assay type: biochemical, squid Loligo pealii; settings: for effect on both modes of axonal transport: 1 μM and 5 μM psychosine perfused; for effect on both antero and retrograde axonal transport rates: 5 μM perfused into extruded axoplasm
# Procedure: Axoplasm was extruded from giant axons of the squid Loligo pealii (Wood Hole Marine Biological Laboratory) as described previously. Szebenyi et al., Neuron 40:41-52 (2003) and Morfini et al., Nat. Neurosci. 9:907-916 (2006). Sphingolipids were diluted into X/2 buffer (175 mM potassium aspartate, 65 mM taurine, 35 mM betaine, 25 mM glycine, 10 mM HEPES, 6.5 mM MgCl2, 5 mM EGTA, 1.5 mM CaCl2 and 0.5 mM glucose, pH 7.2) supplemented with 2-5 mM ATP and 20 μl was added to perfusion chambers. Preparations were analyzed on a Zeiss Axiomat with a 100×, 1.3 n.a. objective, and DIC optics. […]. Organelle velocities were measured with a Photonics Microscopy C2117 video manipulator (Hamamatsu).
# To test whether psychosine exerts a role in neurodegeneration by affecting axonal transport, an experiment was performed using axoplasms isolated from giant squid axons, an approach used to examine the effects on antero and retrograde transport rates of a variety of molecules. Morfini et al., Neuromolecular Med. 2:89-99 (2002).
# Whether psychosine is a pathogenic effector capable of triggering axonal defects in the Twitcher mouse was assessed. To test psychosine effect on FAT, a model of vesicular transport based on the squid Loligo Pelai was employed. This approach has been extensively characterized to examine the effects of different pathogenic proteins. Morfini et al., Neuromolecular. Med. 2:89-99 (2002). Candidate molecules were perfused in a microchamber containing the axoplasm preparations and the average motility of MBO was measured over a period of time. This model has played a fundamental role in the discovery of kinesin-1S (Brady, Nature 317:73-75 (1985)) and the regulatory mechanisms of FAT (Morfini et al., Neuromolecular. Med. 2:89-99 (2002); Morfini et al., Embo J. 23:2235-2245 (2004); and Ratner et al., J. Neurosci. 18:7717-7726 (1998)) as well as the pathogenic mechanism of various proteins and neurotoxins (Morfini et al., Proc. Natl. Acad. Sci. USA 104:2442-2447 (2007); Morfini et al., Nat. Neurosci. 9:907-916 (2006); and Pigino et al., Proc. Natl. Acad. Sci. USA 106:5907-5912 (2009)). Furthermore, antero and retrograde modes of transport in squid axoplasm are identical to those of intact axons (Lasek and Brady, Nature 316:645-647 (1985)) and all regulatory mechanisms discovered in the squid axoplasm are identical to the mammalian neuron.
# Pure preparations of extruded axoplasm isolated from the squid were perfused with different concentrations of psychosine (or related controls) and the speed of MBO was recorded over time.
# primary cortical neurons = test: Primary cortical neurons incubated with psychosine and control sphingolipids (neurites, MTT assay); settings: for effect on number of neurites: embryonic primary cortical neurons, psychosine 0.1, 1 and 10 μM
# Procedure: Cell cultures of cortical neurons were prepared as previously described. […] E16 pregnant females were sacrificed, the brains of the litter were collected, and the cortex was isolated. The brain was chopped, treated with 0.25% trypsin and then passed through a fire polished pipette. The cells were then plated in DMEM (Mediatech) supplemented with 10% fetal bovine serum (FBS) and, after 2 hours, the medium was changed to Neurobasal medium supplemented with B27. For cell survival, the MTT assay (Chemicon) was performed as indicated by the supplier. Briefly, 5000 cells/well were plated in a 96 well plate, and the stimuli were administered for 24 hours. At the end of the incubation time, the MTT reagent was added and, after 4 hours, the reaction was stopped and the absorbance was read at 570 nm. […] Psychosine, D-Sphingosine, and C6-Ceramide were purchased from Sigma and resuspended in ethanol to the desired concentration.
# To test the hypothesis that the presence of psychosine was detrimental to the survival of these neurons, the effect of psychosine treatment on embryonic primary cortical neurons was tested. […] The cytotoxicity of psychosine was determined with the MTT assay, which directly measures mitochondrial activity (FIG. 20L).
# PKC = settings: cited from earlier work
# PP1 = PP1 enzyme activity assay in cortical neurons incubated with psychosine; assay type: cell-based, mouse
# Procedure: Samples were processed for quantitation of PP1 with the Molecular Probes RediPlate™ 96 EnzChek® Serine/Threonine Phosphatase Assay Kit (Molecular Probe), as described by the manufacturer. Samples were homogenized in buffer (50 mM Tris-HCl pH 7.0, containing 0.1 mM CaCl2, 125 μg/ml BSA, 0.05% Tween 20) using a IKA Ultra-Turrax T8 homogenizer. An equal amount of protein was loaded in each well of the 96-well plate and fluorescence was read at an excitation of 370 nm and an emission of 460 nm.
# [1] = system: psychosine-mediated neurotoxicity; test: Psychosine-mediated neurotoxicity with GSK3β inhibitor L803; settings: no experimental details given
# [2] = system: EAE, spinal cord injury, and hypoxic injury; settings: cited from earlier work; for prevention of axonal loss: EAE, spinal cord injury, and hypoxic injury
# [3] = calcium-sensitive dye, Invitrogen; cited from earlier work
# Twitcher-YFPax mice = test: Flecainide treatment of Twitcher-YFPax mice: twitching and axonopathic figures by YFP confocal microscopy; assay type: in vivo, mouse
# From the text: Bechtold et al., Brain 128:18-28 (2005). […] FIG. 23.
# To examine whether protection of axons accompanied the flecainide-mediated amelioration of twitching, spinal cord tissue was collected at P30, and longitudinal sections of the ventral white matter were observed by confocal microscopy for axonal integrity, using the YFP expression as reporter.
# Spinal cord and sciatic nerves were removed from treated and non-treated mice, providing tissue for regular confocal microscopy. Paraformaldehyde-fixed longitudinal 50-μm thick cryosections of spinal cord were used. Whole mount preparations of sciatic nerves were used for confocal analysis. Nerve samples were thoroughly Z-imaged for YEP excitation on a Zeiss Meta-confocal microscope. The number of fragmented or discontinued axons per area in samples from Twi-YFPax mice (treated and non-treated) were counted and the mean values compared to those from WT-YFPax controls. Plotting these numbers against postnatal days allowed a determination of when axonal damage starts and the extent of the effect of each neuroprotective treatment at any given time. Axonal integrity was determined by visualizing continuous YFP fluorescence along a single axon over several hundreds of microns, while visualization of axonal fragments, varicosities, and/or swellings were considered a sign of axonal damage.
# NCX1 = test: Immunoblot of NCX1 in spinal cord extracts of flecainide-treated Twitcher mice; assay type: in vivo, mouse
# Procedure: Tissues were isolated and either frozen for long term storage or directly homogenized in lysis buffer (1 mM PMSF, 2 mM Sodium Orthovanadate, 1 mM NaF, 20 mM Tris HCl pH 7.4, 1% Triton X100, 150 mM NaCl, 5 mM MgCl2, 300 nM Okadaic acid). Samples were then briefly sonicated on ice and spun down at 5000 rpm for 5 min to remove the debris. The amount of protein of the supernatant was then quantified with the Bradford assay (Biorad) and equal amount of proteins were loaded on a 4-12% Bis-Tris gel (Invitrogen). After protein determination, samples were diluted to the same concentration and 10-20 μg of total protein electrophoresed on 4-12% Tris-glycine Nupage (Invitrogen) gels at 80 V in MOPS-SDS running buffer. After at 80 mV the gels were transferred for 2 hour at 120 PVDF on a PVDF membrane (Biorad). The membrane was blocked in 5% milk, 1% BSA, 0.05% Tween 20 in Tris Glycine buffer (blocking solution), then probed with primary antibodies overnight at 4° C. and with the secondary horse radish peroxidase conjugated antibodies for 1 hour at room temperature. […] The membrane was washed for at least one hour after the primary and secondary antibody incubations and developed in the Enhanced Luminescence kit (Thermo Scientific). After exposure, the bands were quantified with the software imageJ and the genes of interest were normalized to the relative loading control.
# [4] = perfusion with control D-Sphingosine
molecule,measurement,setting,value
C=C1[C@@H](O)[C@@H]2O[C@]3(CC[C@H](/C=C/[C@@H](C)[C@@H]4CC(C)=C[C@@]5(O[C@H](C[C@@](C)(O)C(=O)O)CC[C@H]5O)O4)O3)CC[C@H]2O[C@@H]1[C@@H](O)C[C@H](C)[C@H]1O[C@@]2(CCCCO2)CC[C@H]1C [okadaic acid],prevention of psychosine-induced inhibition of fast axonal transport,fast axonal transport; 200 nM okadaic acid co-perfused with 5 μM psychosine,prevented much of the blockage of axonal transport; also recorded: prevented FAT inhibition induced by psychosine
C[S+]([O-])c1ccc(-c2nc(-c3ccncc3)c(-c3ccc(F)cc3)[nH]2)cc1 (centres unmarked) [SB203580],prevention of GM1-mediated inhibition of anterograde fast axonal transport,fast axonal transport,prevented GM1-mediated inhibition of anterograde fast axonal transport
same,prevention of sphingomyelin inhibition of anterograde fast axonal transport,fast axonal transport,prevented
CCCCCCCCCCCCC/C=C/[C@@H](O)[C@@H](N)CO [D-Sphingosine],effect on speed of anterograde or retrograde transport,fast axonal transport; control lipid perfused,did not affect the speed of anterograde or retrograde transport
same,"transport rate, anterograde FAT",fast axonal transport; [4],1.5-2 mm/sec
same,"transport rate, retrograde transport",fast axonal transport; [4],1-1.4 mm/sec
same,effect on number of neurites,primary cortical neurons,did not exert any effect
"CCCCCCCCCCCCC/C=C/[C@@H](O)[C@@H](N)CO[C@@H]1O[C@H](CO)[C@H](O)[C@H](O)[C@H]1O [psychosine, galactosylsphingosine]",inhibition of kinases,PKC,known to inhibit kinases such as PKC
same,effect on both modes of axonal transport,fast axonal transport,strong inhibition of both modes of axonal transport
same,effect on both modes of axonal transport,fast axonal transport; listed as Psychosine,strongly inhibited both modes of FAT
same,effect on both antero and retrograde axonal transport rates,fast axonal transport,rapid reduction of both antero and retrograde axonal transport rates; also recorded: strong inhibitory effect on both antero and retrograde transport
same,effect on number of neurites,primary cortical neurons,decrease in the number of neurites
same,"cytotoxicity, MTT assay","primary cortical neurons; primary cortical neurons, 1 μM, 24 hours",toxic even at low concentrations
same,PP1 activity,PP1; acutely purified embryonic cortical neurons incubated with psychosine,PP1 activity was induced; also recorded: dose-dependent increase in PP1 activity
same,PP1 activity,"PP1; cortical neurons, incubation with psychosine for 1 hour",PP1 activity increased
KEAPPAPPQ[pS]P [L803],effect on psychosine-mediated neurotoxicity,[1],decreased psychosine-mediated neurotoxicity
"CCCCCCCCCCCCC/C=C/[C@@H](O)[C@H](CO)NC(=O)CCCCC [C6 ceramide, C6-Ceramide]",effect on number of neurites,primary cortical neurons,comparable
Sulfatides,effect on both antero and retrograde axonal transport rates,fast axonal transport,inhibited both anterograde and retrograde modes of fast axonal transport
chondroitin sulfate,effect on both antero and retrograde axonal transport rates,fast axonal transport,no detectable effect
sphingomyelin,effect on anterograde mode of fast axonal transport,fast axonal transport; 5 μM perfused,inhibited the anterograde mode of fast axonal transport only
same,effect on retrograde mode of fast axonal transport,fast axonal transport; 5 μM perfused,did not show any effect on the retrograde mode of transport
O=C1NC(=O)C(c2ccccc2)(c2ccccc2)N1 [phenytoin],prevention of axonal loss,[2],successfully prevented major axonal loss
fluo-4,pKd,[3],6.46
O=C(NCC1CCCCN1)c1cc(OCC(F)(F)F)ccc1OCC(F)(F)F (centres unmarked) [flecainide],onset of twitching (percentage of mice twitching),"Twitcher-YFPax mice; 30 mg/kg body weight/day from P5 or P9 until P30, at 15, 20, 25 and 30 days of age",delayed onset of twitching
same,protection of axons in the spinal cord,Twitcher-YFPax mice; daily subcutaneous 30 mg/kg/day starting from P2,significantly protected axons in the spinal cord; also recorded: even stronger protective effect
same,reduction of number of structural pathologies (axonopathic figures per area) to motor axons,"Twitcher-YFPax mice; early treatment from P5, 30 mg/kg/day, spinal cord at P30",about 50%
same,frequency of axonopathic figures in the ventral spinal cord,"Twitcher-YFPax mice; late treatment from P9, 30 mg/kg/day, spinal cord at P30",not significantly different from that in vehicle-treated animals
same,NCX1 expression in spinal cord,NCX1; early flecainide treatment (P5),reduced NCX1 expression at early (P20) and late (P30) ages; also recorded: reduced the expression of NCX1
same,NCX1 expression in spinal cord,NCX1; late flecainide treatment (P9),Reduction of NXC1 was not detected; also recorded: no differences in NCX1 expression
same,reduction of axonal degeneration,"[2]; 30 mg/kg/day, models of demyelinating EAE",sufficient to reduce axonal degeneration
same,prevention of axonal loss,[2],successfully prevented major axonal loss
same,"sodium channel firing, sodium influx and axon protection",[2]; models of acute and chronic demyelination,"successful in reducing excessive firing of sodium channels, decreasing sodium influx, and protecting axons"
